From patent US20080108608A1, “Pyrimidines With Tie2 (Tek) Activity” (ASTRAZENECA AB, priority 2003, published 2008) come the findings set out here.

Test [1] addresses T1, Tie2 receptor tyrosine kinase (Homo sapiens, UniProt Q02763).
T1 construct: consist of only the intracellular portion C-terminal portion of the respective receptor, within which is found the kinase domain; made in house; host or cells: baculovirus/Sf21 insect cells (or alternative equivalent); used as cleared cell lysate
The test can be described thus: In vitro receptor tyrosine kinase inhibition assay (Test (a)), ELISA based. Format: biochemical. Conditions: recombinant human Tie2 kinase domain. As for the experimental part:
a. In Vitro Receptor Tyrosine Kinase Inhibition Assay
To test for inhibition of Tie2 receptor tyrosine kinase, compounds are evaluated in a non-cell based protein kinase assay by their ability to inhibit the protein kinase enzyme phosphorylation of a tyrosine containing polypeptide substrate in an ELISA based microtitre plate assay. In this particular case, the assay was to determine the IC50, for three different recombinant human tyrosine kinases Tie2, KDR and Flt.
To facilitate production of the tyrosine kinases, recombinant receptor genes were produced using standard molecular biology cloning and mutagenesis techniques. These recombinant proteins fragments encoded within these genes consist of only the intracellular portion C-terminal portion of the respective receptor, within which is found the kinase domain. The recombinant genes encoding the kinase domain containing fragments were cloned and expressed in standard baculovirus/Sf21 system (or alternative equivalent) […]
Constitutive kinase activity of these recombinant proteins was determined by their ability to phosphorylate a synthetic peptide (made up of a random co-polymer of Glutamic Acid, Alanine and Tyrosine in the ratio of 6:3:1). […]
The immobilised phospho-peptide product of the reaction was detected by immunological methods. […] Following extensive washing with PBS-T, HRP activity in each well of the plate was measured colorimetrically using 22′-Azino-di-[3-ethylbenzthiazoline sulfonate (6)]diammonium salt crystals ABTS (Sigma P4922—prepared as per manufactures instructions) as a substrate incubated for 30-45 minutes to allow colour development, before 100 ul of 1M H2SO4 was added to stop the reaction.
Quantification of colour development and thus enzyme activity was achieved by the measurement of absorbance at 405 nm on a Molecular Devices ThermoMax microplate reader. Kinase inhibition for a given compound was expressed as an IC50 value. […] The range of phosphorylation was calculated from the positive (vehicle plus ATP) and negative (vehicle minus ATP) control values.
(In an ELISA, binding on a coated surface is turned into a signal by an enzyme label.)

Test [2] addresses T2, Tie2 receptor (Homo sapiens, UniProt Q02763).
T2 construct: natural cell lines or primary cells which are known to express the receptor of choice; endogenous in cells; host or cells: EA.hy926/B3 cells (HUVEC named as an alternative)
The test can be described thus: Cellular Tie2 autophosphorylation assay (Test (b)). It counts as cell-based. The note with it: Ang1 ligand stimulated whole cells, e.g. EA.hy926/B3; read-out: IC50 (μM) Test (b): Inhibition of autophosphorylation of Tie2 receptor tyrosine kinase. An excerpt:
b. Cellular Tie2 Autophosphorylation Assay
This assay is based on measuring the ability of compounds to inhibit autophosphorylation of the Tie2 receptor which normally leads to the production of “activated” receptor that in turn initiates the particular signal transduction pathways associated with the receptor function.
Autophosphorylation can be achieved by a number of means. It is known that expression of recombinant kinase domains in baculoviral systems can lead to the production of phosphorylated and activated receptor. It is also reported that over expression of receptors in recombinant cell lines can itself lead to receptor autophosphorylation in the absence of the ligand (Heldin C-H. 1995 Cell: 80, 213-223; Blume-J. P, Hunter T. 2001 Nature: 411, 355-65). Furthermore, there are numerous literature examples in which chimaeric receptors have been constructed. In these cases the natural, external cell surface domain of the receptor has been replaced with that of a domain which is known to be readily dimerised via the addition of the appropriate ligand (e.g. TrkA-Tie2/NGF ligand (Marron, M. B., et al., 2000 Journal of Biological Chemistry: 275:39741-39746) or C-fins-Tie-1/CSF-1 ligand (Kontos, C. D., et al., 2002 Molecular and Cellular Biology: 22, 1704-1713). Thus when the chimaeric receptor expressed in a host cell line and the respective ligand is added, this induces autophosphorylation of the chimeric receptor's kinase domain. This approach has the advantage of often allowing a known (and often easily obtained) ligand to be used instead of having to identify and isolate the natural ligand for each receptor of interest.
Naturally if the ligand is available one can use natural cell lines or primary cells which are known to express the receptor of choice and simply stimulate with ligand to achieve ligand induced phosphorylation. […]

T2 sequence (Q02763 23-1124): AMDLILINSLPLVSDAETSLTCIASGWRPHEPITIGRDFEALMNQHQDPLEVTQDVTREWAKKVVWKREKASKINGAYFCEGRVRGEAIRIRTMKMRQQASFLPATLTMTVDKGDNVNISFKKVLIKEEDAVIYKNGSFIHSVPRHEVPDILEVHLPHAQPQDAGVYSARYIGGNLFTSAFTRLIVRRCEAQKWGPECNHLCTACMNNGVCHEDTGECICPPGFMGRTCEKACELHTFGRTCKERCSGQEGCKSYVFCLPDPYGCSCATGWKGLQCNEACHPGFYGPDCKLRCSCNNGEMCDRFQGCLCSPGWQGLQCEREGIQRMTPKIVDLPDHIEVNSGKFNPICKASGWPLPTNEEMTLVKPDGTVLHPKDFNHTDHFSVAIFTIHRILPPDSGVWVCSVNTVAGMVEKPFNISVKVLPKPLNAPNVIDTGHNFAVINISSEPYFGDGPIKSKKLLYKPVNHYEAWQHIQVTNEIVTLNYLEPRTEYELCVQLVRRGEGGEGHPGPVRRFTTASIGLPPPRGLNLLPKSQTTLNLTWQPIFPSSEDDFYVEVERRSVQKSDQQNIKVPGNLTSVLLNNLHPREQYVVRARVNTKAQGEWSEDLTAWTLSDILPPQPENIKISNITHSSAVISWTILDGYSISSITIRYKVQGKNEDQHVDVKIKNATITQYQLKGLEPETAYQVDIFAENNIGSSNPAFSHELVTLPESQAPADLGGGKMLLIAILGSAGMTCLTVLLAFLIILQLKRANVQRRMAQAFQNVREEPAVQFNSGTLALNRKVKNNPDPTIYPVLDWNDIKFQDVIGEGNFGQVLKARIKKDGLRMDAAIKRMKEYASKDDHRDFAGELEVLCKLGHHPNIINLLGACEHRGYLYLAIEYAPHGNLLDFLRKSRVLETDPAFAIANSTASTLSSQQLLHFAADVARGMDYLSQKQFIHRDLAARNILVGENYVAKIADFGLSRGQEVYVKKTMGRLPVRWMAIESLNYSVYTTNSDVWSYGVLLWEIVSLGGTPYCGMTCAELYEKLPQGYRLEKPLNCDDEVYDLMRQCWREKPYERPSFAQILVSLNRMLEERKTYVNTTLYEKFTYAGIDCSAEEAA
T1 sequence (Q02763 770-1124 limits assumed): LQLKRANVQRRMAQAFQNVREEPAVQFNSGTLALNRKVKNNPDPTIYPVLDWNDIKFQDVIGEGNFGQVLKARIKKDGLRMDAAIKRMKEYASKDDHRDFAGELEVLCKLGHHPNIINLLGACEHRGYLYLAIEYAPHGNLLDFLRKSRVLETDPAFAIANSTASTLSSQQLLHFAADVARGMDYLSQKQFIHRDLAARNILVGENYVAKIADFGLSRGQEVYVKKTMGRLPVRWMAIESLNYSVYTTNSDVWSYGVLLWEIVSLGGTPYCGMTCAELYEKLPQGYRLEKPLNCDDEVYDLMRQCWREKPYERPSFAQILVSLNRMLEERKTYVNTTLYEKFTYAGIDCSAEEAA

For the molecule `CC(C)(C)c1nnc(NC(=O)Nc2cccc(C#Cc3cnc(NCCN4CCCC4)nc3)c2)s1` [Example 48, N-(5-tert-butyl-1,3,4-thiadiazol-2-yl)-N′-[3-({2-[(2-pyrrolidin-1-ylethyl)amino]pyrimidin-5-yl}ethynyl)phenyl]urea], the IC50 in test [1] was found to be 74.9 µM; in test [2] it was 3.29 µM.

Consider `Cc1cc(NC(=O)Nc2cccc(C#Cc3cnc(N)nc3)c2)on1` [Example 19, N-{3-[(2-aminopyrimidin-5-yl)ethynyl]phenyl}-N′-(3-methylisoxazol-5-yl)urea], for which the values for the IC50 in test [1] and in test [2] were 19.9 µM and 0.337 µM, respectively.

With `CC(C)(C)c1cc(NC(=O)Nc2cccc(C#Cc3cnc(NCCN4CCCC4)nc3)c2)no1` [Example 33, N-(5-tert-butylisoxazol-3-yl)-N′-[3-({2-[(2-pyrrolidin-1-ylethyl)amino]pyrimidin-5-yl}ethynyl)phenyl]urea], the IC50 amounted to 5.7 µM in test [1] and 2.59 µM in test [2].

As a reminder, the IC50 is the concentration at which inhibition is half-maximal.
